Several values for one entry are separate records, joined by “and”; a condition that tells them apart may be missing. Identical values can stand only once.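 How tested: cells in 96-well plates exposed to compound for 48 hours at five concentrations. GI50 is the concentration that inhibits growth by half. At the TGI there is no net growth.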 Some results are limits rather than exact numbers.

This experiment deals with MDA-MB-468 breast. In words: NCI-60 cell line screen, 48 h.
Regarding `Oc1c(I)cc(I)cc1CNCCCN(Cc1ccccn1)Cc1ccccn1`, the GI50 was 1.01 µM and the TGI is 2.34 µM.
Turning to `C[C@@H]1CN(Cc2ccc(/C=C/c3n[nH]c4ccc5nc(-c6cn[nH]c6C(F)(F)F)c6c(c5c34)CCCC6)cc2)C[C@H](C)O1`, the GI50 was 5.89 µM and the TGI came to 22.2 µM.
On to `COC(=O)Nc1nc2c(OC)c(OC)c(OC)cc2[nH]1`, for which the GI50 was 14.3 µM and the TGI is over 77.3 µM.
On to `CC(C)(C)c1ccc(C(=O)N/N=C/c2ccc(O)cc2O)cc1`, for which the GI50 is 0.396 µM and the TGI is 2.24 µM.
In the same order, the values of `COC(=O)[C@]12CC[C@@H](C)[C@H](C)[C@@H]1C1=CC[C@@H]3[C@@]4(C)C(c5ncon5)=C[C@@](C)(CO)C4=CC[C@@]3(C)[C@]1(C)CC2` are 1.95 µM and 3.8 µM.
Regarding `COc1cc(C2c3cc4c(cc3C3OC(=O)C2C3CO)OCO4)cc(OC)c1OC` (configuration not stated), the GI50 was under 0.01 µM and the TGI is over 100 µM.
Regarding `c1ccc(Cn2cc3c(c2)-c2oncc2CC3)cc1`, the GI50 was 0.331 µM.
With `Cc1ccc2c(n1)C(=O)C(Cl)=C(Nc1cccc(C(C)C)c1)C2=O`, the GI50 is 1.2 µM and the TGI was 2.61 µM.
Take `COCCNc1ccc2ncc(C#Cc3cncc(C(=O)Nc4ccc(CN5CCN(C)CC5)c(C(F)(F)F)c4)c3)n2n1`: the GI50 is 0.101 µM and the TGI came to 0.26 µM.
Take `O=C1OCC2=C1C(c1cccc(F)c1)c1cc3c(cc1N2CCO)OCCO3` (configuration not stated): the GI50 was 0.125 µM.
As for `COc1ccc2c(c1)c(CC(=O)[Se]CCC#N)c(C)n2C(=O)c1ccc(Cl)cc1`, the GI50 is 2.5 µM and the TGI worked out at 6.93 µM.
For `O=C(c1ccc(O)cc1)c1ccc(C(=O)c2ccc(O)cc2)cc1` the same measures were 6.5 µM and over 100 µM.
Regarding `NC(=O)Nc1ccc2ncnc(Nc3ccc(Cl)cc3)c2c1`, the GI50 was 1.43 µM and the TGI was determined as 8.28 µM.
Regarding `O=C1C(N2CCN(c3ccccc3)CC2)=C(Cl)C(=O)c2ncccc21`, the GI50 was 1.59 µM and the TGI came to 3.16 µM.
Regarding `COc1ccc(C(=O)Nc2ncc(Cc3ccc(F)cc3)s2)cc1`, the GI50 is 0.362 µM and the TGI was over 100 µM.
`O=C(O)c1cn(C2CC2)c2cc(N3CCN(S(=O)(=O)c4ccc(Cl)c(Cl)c4)CC3)c(F)cc2c1=O`: the GI50 was 2.24 µM and the TGI was found to be 6.89 µM.
In the same order, the values of `C=C(C=O)[C@@H]1CC[C@]2(C)[C@H](CC=C3[C@H]4[C@@H](C)[C@H](C)CC[C@]4(C(=O)OC)CC[C@]32C)[C@@]1(C)CCC#N` are 1.6 µM and 3.24 µM.
`CN1CCN(c2nc(-c3csc(-c4ccccc4)n3)cc3ccccc23)CC1`: the GI50 was 1.74 µM and the TGI came out at 4.01 µM.
Take `O=C1NC(=O)c2c1c1c3ccccc3ccc1c1[nH]c3ccc(Br)cc3c21`: the GI50 was 1.56 µM and the TGI was determined as 3.99 µM.
For `CC(C)[C@@H](C(=O)O[C@@H]1/C=C/C(=O)O[C@@H](C)CCC/C=C/[C@@H]2C[C@H](O)C[C@H]21)[N+](C)(C)C` the same measures were over 100 µM and over 100 µM.
Regarding `NC1=CC(=O)C(=O)c2cccnc21`, the GI50 was 10.6 µM and the TGI came out at 22.5 µM.
With `c1ccc(-c2n(Cc3ccc4ccccc4n3)c3ccccc3[n+]2Cc2ccc3ccccc3n2)cc1`, the GI50 was 0.105 µM and the TGI is 0.512 µM.
`O=C1Nc2ccccc2C12CC(c1ccccc1)=NN2` (configuration not stated): the GI50 was 6.96 µM and the TGI was over 100 µM.
In the case of `Clc1ccccc1-c1nc2ccccc2[nH]1`, the GI50 was 37 µM and the TGI was over 100 µM.
Regarding `O=C(Cc1ccc(/C=C/C(=O)c2ncc[nH]2)cc1)Nc1ccc(Br)cc1`, the GI50 is 1.42 µM and the TGI was found to be 4.09 µM.
As to `COc1cc2c3c(cc4c5c(ccc4c3c1OC)OCO5)N(CCN(C)C)C2=O`, the GI50 was 0.0731 µM and the TGI was 0.412 µM.
Take `C=C(C)[C@@H]1CC[C@]2(COS(C)(=O)=O)CC[C@]3(C)[C@H](CC[C@@H]4[C@@]5(C)CCCNC(C)(C)[C@@H]5CC[C@]43C)[C@@H]12`: the GI50 is 1.75 µM and the TGI turned out to be 3.23 µM.
In the case of `Cc1cc(N(CCCNc2ccnc3cc(Cl)ccc23)Cc2cccs2)nc(Cl)n1`, the GI50 is 0.853 µM and the TGI turned out to be 5.74 µM.
Take `COc1ccc(N2CCN(CC(=O)N3CCN(c4nnc(-c5ccccc5)c(-c5ccccc5)n4)CC3)CC2)cc1`: the GI50 is 2.44 µM and the TGI amounted to 12.8 µM.
As for `O=C1C2C(C(=O)[N]1[Hg][c]1ccccc1)C1(Cl)C(Cl)=C(Cl)C2(Cl)C1(Cl)Cl` (configuration not stated), the GI50 was 0.233 µM and the TGI was found to be 0.728 µM.
Turning to `COc1cc(C(=O)/C=C/c2c(-c3ccc(F)cc3)nc3sccn23)cc(OC)c1OC`, the GI50 is 2.81 µM and the TGI is 13.6 µM.
As for `COc1cc(Nc2ncc3c(n2)-c2ccc(Cl)cc2C(c2c(F)cccc2OC)=NC3)ccc1C(=O)O`, the GI50 was 0.0456 µM and the TGI stood at 19.9 µM.
With `Nc1c(C(=O)Nc2cccc3ccccc23)sc2nc3c(cc12)CCCC3`, the GI50 was 0.327 µM and the TGI is over 100 µM.
Regarding `Cc1cc(C)cc(Nc2nccc(-c3c(-c4ccc(F)cc4)ncn3C3CCNCC3)n2)c1`, the GI50 was 1.14 µM and the TGI was found to be 2.76 µM.
For the compound `O=C1CC(c2ccccc2)Cc2nc3ccc(Cl)cc3cc21` (configuration not stated), the GI50 was 2.86 µM and the TGI is over 26.1 µM.
As to `Cc1cc2nc3ccc(N=Nc4ccc(N(C)C)cc4)cc3n(-c3ccccc3)c-2cc1=N`, the GI50 is 0.0195 µM and the TGI came to 0.199 µM.
For `Cn1cc(-c2csc(-c3cn(CCN4CCOCC4)c4ccc(F)cc34)n2)c2cccnc21` the same measures were 2.2 µM and 8.59 µM.
For `CC(=O)OC1CCC2(C)C(CCC3C2CCC2(C)C(C4=CC(=O)OC4)CCC32)C1` (configuration not stated), the GI50 was 5.26 µM and the TGI came out at 44.9 µM.
As to `CCOC(=O)Nc1nc2c(F)c(F)c(F)cc2s1`, the GI50 was 53.9 µM and the TGI was over 100 µM.
Regarding `COc1ccc(-c2nnc3n(C)c(=O)c4ccccc4n23)cc1O`, the GI50 was 1.21 µM and the TGI stood at 14 µM.
For `O=C(Cc1ccccc1)Nc1nnc(CCSCCc2nnc(NC(=O)Cc3ccccc3)s2)s1`, the GI50 is 36 µM and the TGI was over 100 µM.
Regarding `CCN(CC)c1ccc(/C=C/C(=O)c2cccc(NS(C)(=O)=O)c2)cc1`, the GI50 is 3.84 µM and the TGI is over 100 µM.
As to `COc1ccc(/C=C/c2nc(N3CCOCC3)c3cc(F)c(F)cc3n2)cc1OC`, the GI50 is 0.748 µM and the TGI is 8.03 µM.
For `Cc1cc[c-]cc1.Fc1c[c-]c(-c2ccccn2)c(F)c1.N#CCC[PH+](CCC#N)c1ccccc1.[Pt+2]`, the GI50 is 2.88 µM and the TGI worked out at 9.11 µM.
Turning to `Cc1cc(-c2ccccc2)c(C)n1Cc1ccc(Cl)cc1`, the GI50 is 1.42 µM and the TGI worked out at 7.54 µM.
For `CC1=C[C@H]2c3c(c(O)c(O)c4oc5cc(O)cc(O)c5c(=O)c34)[C@H](c3cc(O)c(O)c4oc5cc(O)cc(O)c5c(=O)c34)[C@H]2C(C)(C)C1`, the GI50 was 2.07 µM; the TGI is 5.67 µM and 6.25 µM.
For `Cc1ccc(C(=O)Nc2ccc(CN3CCN(C)CC3)c(C(F)(F)F)c2)cc1C#Cc1cncc2ncccc12`, the GI50 is 1.46 µM and the TGI worked out at 18.5 µM.

For the origin of these results see PubChem BioAssay (NCI).
